Data from ChEMBL document CHEMBL4251557 (Eur J Med Chem, 2017).

Biological target: Neuraminidase (Influenza A virus (A/Puerto Rico/8/1934(H1N1)), UniProt P03468, H274Y)
Parameters: species or system Influenza A virus (A/California/04/2009(H1N1))

CCC(CC)O[C@@H]1C=C(C(=O)O)C[C@H](NC(C)=O)[C@H]1NC(C)=O
IC50: 1380 nM
